Reference: patent US20080311039A1, “Therapeutic and Prognostic Factor Yy1 in Human Cancer” (The Regents of the University of California, priority 2004, published 2008)
Counter-ions that a name gives are not always drawn. One block for each compound: values may come before it.

Columns and labels:
YY1 [1] = experiment: YY1 expression in PC-3 cells
YY1 [2] = experiment: YY1 activity by luciferase reporter assay in PC-3
DR5 promoter = experiment: DR5 luciferase reporter system (pDR5 wild type) in PC3 cells; format: cell-based, human; details: PC3 transfected with pDR5, drug treatment vs basal
Text: Another reporter gene system of use in the present invention utilized firefly luciferase luminescence as the reporter signal. In this reporter system, a wild-type DR5 promoter is operably linked to a luciferase reporter sequence. The wild-type DR5YY1 responsive site can be used in parallel with a DR5 promoter having a non-functional YY1 responsive site, for example, a 5′-deletion mutant-605 that includes the YY1 binding site (pDR5/-605) (described in Yoshida, et al, (2001) FEBS Letters, 507:381-385), or a DR5 promoter sequence missing the YY1 binding sequence (pDR5-YY1 mutant) (see, Huerta-Yepez, et al., AACR Abstract, 2005).
However, many drug-resistant tumor cells are also resistant to TRAIL and such tumors require sensitization to reverse TRAIL resistance. […] This hypothesis was tested by examining a luciferase reporter system (pDR5 wild type) and plasmids in which the YY1-binding site was either deleted (pDR5/-605) and/or mutated (pDR5-YY1 mutant).

B-NHL cell lines [3] = experiment: Sensitization to CH-11 (FasL agonist mAb)-induced apoptosis in B-NHL cell lines; format: cell-based
Text: (§1) We have recently reported that treatment of B-Non-Hodgkin's Lymphoma (NHL) cell lines with rituximab (anti-CD20 antibody) sensitizes the tumor cells to both chemotherapy and Fas-induced apoptosis (Jazirehi and Bonavida, 2005, Oncogene, 24:2121-2145). This study investigated the underlying molecular mechanism of rituximab-mediated reversal of resistance. Treatment of B-NHL cell lines inhibited the constitutively activated NF-κB. Cells expressing dominant active IκB or treated with NF-κB specific inhibitors were sensitized to both drugs and FasL agonist mAb (CH-11)-induced apoptosis. Downregulation of Bcl-xL expression via inhibition of NF-κB activity correlated with chemosensitivity. […] The role of Bcl-xL expression in the regulation of Fas resistance was not apparent as Ramos HA-Bcl cells were as sensitive as the wild type cells to CH-11-induced apoptosis. […] These findings show two complementary mechanisms underlying the chemo-sensitization and immuno-sensitization of B NHL cells by rituximab via inhibition of NF-κB. The regulation of chemoresistance by NF-B is mediated via Bcl-xL expression whereas the regulation of Fas resistance by NF-B is mediated via YY1 expression and activity.
(§2) We have reported that rituximab triggers and inhibits anti-apoptotic gene products in NHL B-cell lines resulting in sensitization to drug-induced apoptosis (Alas et al., Clin. Cancer Res. 8:836, 2001; Jazirehi et al., Mol. Cancer. Therapy 2:1183, 2003; Vega et al., Oncogene 23:3530, 2004). This study investigated whether rituximab also modifies intracellular signaling pathways resulting in the sensitization of NHL cells to Fas-induced apoptosis. […] Downregulation of YY1 expression was the result of rituximab-induced inhibition of both the p38MAPK signaling pathway and constitutive NF-κB activity. The dual roles of NF-κB and YY1 in the regulation of Fas expression were corroborated by the use of a dominant-active inhibitor of NF-κB (Ramos IκB-ER mutant) and YY1 siRNA, respectively. […]

NF-κB [4] = experiment: NF-κB DNA-binding activity in PC-3 cells; format: cell-based, human
PC-3 cells [5] = experiment: Sensitization to Fas ligand-mediated apoptosis, PC-3; format: cell-based, human; details: 500 μM, 1000 μM, 18 h
Protocol: (§3) Yin-Yang 1 (YY1) is a transcription factor that may activate or repress gene expression. […] In this study, we examined the direct S-nitrosylation of YY1 using the human prostate cancer cell line, PC-3, as model. Culture cells were incubated for 18 h in the presence of various concentrations of the NO donor DETANONOate (500 μM, 1000 μM) that sensitized PC-3 to Fas ligand- and TRAIL-mediated apoptosis. Subsequently, we analyzed for S-nitrosylation of YY1 by various methods. […] Noteworthy, significant constitutive S-nitrosylated proteins were detected. Further, using double immunofluorescence staining microscopy, we co-localized the presence of S-nitrosylated proteins and YY1.

DR5 = DR5 expression in PC-3 cells by flow, RT-PCR and western; format: cell-based, human
Fas = Fas expression in B-NHL cell lines (flow cytometry, RT-PCR, Western); format: cell-based
Text: as §1, §2

PC-3 cells [6] = details: TRAIL-resistant human prostate carcinoma (CaP) cell lines; Huerta-Yepez et al. 2004; cited from earlier work
YY1 [7] = target: T1, YY1 (Homo sapiens, UniProt P25490); experiment: YY1 DNA-binding activity in PC-3 cells; format: cell-based; parameters: endogenous in cells; host or cells: PC-3
YY1 [8] = target: T1, YY1; experiment: YY1 activity in B-NHL cell lines; format: cell-based; parameters: endogenous in cells; host or cells: 2F7, Ramos, Raji; rituximab-resistant Ramos RR1
Text: as §1, §2

PC-3 cells [9] = experiment: Sensitization to TRAIL-induced apoptosis, prostate carcinoma cells; format: cell-based, human; details: 500 μM, 1000 μM, 18 h
Protocol: as §3

PC-3 cells [10] = experiment: General S-nitrosylation of proteins in PC-3 by immunohistochemistry; format: cell-based, human; details: PC-3, after treatment with NO
Protocol: as §3

YY1 [11] = experiment: YY1 expression in rituximab-resistant Ramos RR1 cells; format: cell-based; details: alone or in combination with NF-κB inhibitors
Protocol: Ramos and Ramos RR1 cells were treated with vincristine, VP-16, CDDP, and ADR, and the NF-κB inhibitors Bortezomib and DHMEQ.

B-NHL cell lines [12] = details: Jazirehi and Bonavida 2005; cited from earlier work
YY1 [13] = experiment: YY1 expression in NHL B-cell lines; format: cell-based; details: NHL B cell lines (Example 9)
Text: (§4) We have reported that rituximab triggers and inhibits anti-apoptotic gene products in NHL B-cell lines resulting in sensitization to drug-induced apoptosis (Alas et al., Clin. Cancer Res. 8:836, 2001; Jazirehi et al., Mol. Cancer. Therapy 2:1183, 2003; Vega et al., Oncogene 23:3530, 2004). This study investigated whether rituximab also modifies intracellular signaling pathways resulting in the sensitization of NHL cells to Fas-induced apoptosis. […] Downregulation of YY1 expression was the result of rituximab-induced inhibition of both the p38MAPK signaling pathway and constitutive NF-κB activity. The dual roles of NF-κB and YY1 in the regulation of Fas expression were corroborated by the use of a dominant-active inhibitor of NF-κB (Ramos IκB-ER mutant) and YY1 siRNA, respectively. The role of rituximab-mediated inhibition of the p38MAPK/NF-κB/YY1 pathways, which result in both Fas upregulation and sensitization to CH11-induced apoptosis, was corroborated by the use of specific chemical inhibitors directed at various targets of these pathways. […] Altogether, these findings provide a novel mechanism of rituximab-mediated signaling by inhibiting the p38MAPK/NF-κB/YY1 pathways and resulting in the sensitization of B NHL to Fas-induced apoptosis. […]

NF-κB [14] = experiment: Constitutive NF-κB activity in NHL cell lines; format: cell-based; details: NHL B cell lines
Text: as §4

Ramos cells [15] = details: B-NHL cell lines; Jazirehi and Bonavida 2005; cited from earlier work
Ramos cells [16] = experiment: Chemosensitization to drug-induced apoptosis in Ramos B-NHL cells and variants; format: cell-based
Text: as §1

[17] = test system: p38MAPK signaling pathway; experiment: p38MAPK signaling pathway in NHL cell lines; format: cell-based; details: NHL B cell lines
Text: as §4

T1 sequence (P25490 whole entry): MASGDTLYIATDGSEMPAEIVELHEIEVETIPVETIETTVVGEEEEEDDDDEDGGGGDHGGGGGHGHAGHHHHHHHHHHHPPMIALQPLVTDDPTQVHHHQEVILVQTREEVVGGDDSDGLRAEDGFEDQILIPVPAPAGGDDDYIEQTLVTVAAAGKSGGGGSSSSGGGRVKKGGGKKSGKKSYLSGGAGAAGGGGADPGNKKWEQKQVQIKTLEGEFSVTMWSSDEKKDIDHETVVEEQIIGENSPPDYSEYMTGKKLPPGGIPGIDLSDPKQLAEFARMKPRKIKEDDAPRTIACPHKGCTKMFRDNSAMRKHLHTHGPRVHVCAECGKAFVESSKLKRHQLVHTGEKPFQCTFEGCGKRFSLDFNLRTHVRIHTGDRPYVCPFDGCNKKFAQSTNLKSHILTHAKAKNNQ

YY1 activity (luciferase reporter assay) (YY1 [2]): marked reduction
Compound: COc1cc2c(cc1O)CC[C@@H]1[C@@H]2CC[C@]2(C)[C@@H](O)CC[C@@H]12 [2-methoxyestradiol, 2-Methoxyestradiol]
YY1 expression (YY1 [1]): marked reduction

Compound: COc1cccc2c1C(=O)c1c(O)c3c(c(O)c1C2=O)C[C@@](O)(C(=O)CO)C[C@@H]3O[C@H]1C[C@H](N)[C@H](O)[C@H](C)O1 [ADR, doxorubicin hydrochloride]
luciferase activity (DR5 promoter): significantly augmented luciferase activity

Compound: [NH2][Pt]([NH2])([Cl])[Cl] [CDDP, cisplatin]
luciferase activity (DR5 promoter): significantly augmented luciferase activity

YY1 DNA-binding activity (YY1 [7]): inhibited
YY1 activity (YY1 [8]; B-NHL cell lines (Example 6)): Inhibition of YY1 activity
Compound: NCCN(CCN)/[N+]([O-])=N/O [DETANONOate, 3,3-bis(aminoethyl)-1-hydroxy-2-oxo-*1-triazene]
sensitization to CH-11-induced apoptosis (B-NHL cell lines [3]; B-NHL cell lines (Example 6)): sensitization to CH-11-induced apoptosis
NF-κB DNA-binding activity (NF-κB [4]): inhibited
YY1 expression (YY1 [1]): inhibited YY1 expression
sensitization to Fas ligand-mediated apoptosis (PC-3 cells [5]): sensitized
DR5 expression (DR5): significant upregulation of DR5 expression
Fas expression (Fas; B-NHL cell lines (Example 6)): upregulation of Fas expression
sensitization of TRAIL-resistant CaP cell lines (PC-3 cells [6]): can be sensitized
sensitization to TRAIL-mediated apoptosis (PC-3 cells [9]): sensitized

Compound: [N]=O [NO, nitric oxide]
general S-nitrosylation of proteins (PC-3 cells [10]): increased

Compound: CC[C@]1(O)C[C@H]2CN(CCc3c([nH]c4ccccc34)[C@@](C(=O)OC)(c3cc4c(cc3OC)N(C=O)[C@H]3[C@@](O)(C(=O)OC)[C@H](OC(C)=O)[C@]5(CC)C=CCN6CC[C@]43[C@@H]65)C2)C1 [vincristine]
YY1 expression (YY1 [11]): significantly abrogated or diminished YY1 expression

YY1 activity (YY1 [8]; B-NHL cell lines (Example 6)): Inhibition of YY1 activity
YY1 activity (YY1 [8]; NHL B cell lines (Example 9)): inhibited
Compound: rituximab: anti-CD20 antibody
sensitization to CH-11-induced apoptosis (B-NHL cell lines [3]; 2F7, Ramos and Raji, 20 μg/ml): sensitized the cells to CH-11 (FasL agonist mAb)-induced apoptosis and synergy was achieved
sensitization to CH-11-induced apoptosis (B-NHL cell lines [3]; B-NHL cell lines (Example 6)): sensitization to CH-11-induced apoptosis
sensitization to Fas-induced apoptosis (B-NHL cell lines [12]): sensitizes
YY1 expression (YY1 [13]): inhibited
constitutive NF-κB activity (NF-κB [14]): inhibition
Fas expression (Fas; B-NHL cell lines (Example 6)): upregulation of Fas expression
Fas expression (Fas; NHL cell lines, as early as 6 h post treatment, flow cytometry, RT-PCR, Western): up-regulated
sensitization to chemotherapy (Ramos cells [15]): sensitizes
sensitization to drug-induced apoptosis (Ramos cells [16]; Bcl-xL overexpressing Ramos HA-BclxL cells): not sensitized
chemosensitization (Ramos cells [16]; rituximab-resistant Ramos RR1 cells): cannot be chemosensitized
p38MAPK signaling pathway [17]: inhibition
